According to article PMC5856786, “A DHODH inhibitor increases p53 synthesis and enhances tumor cell killing by p53 degradation blockage” (Nature Communications, 2018):

Experiments:
[1] = system: cyclin-dependent kinases (CDKs); test: 33PanQinase radiometric kinase assay, panel of 16 CDKs (Supplementary Table 1); assay type: biochemical
Source text: Supplementary Table 1. In vitro inhibition (% remaining activity) of cyclin-dependent
ProQinase GmbH (Freiburg, Germany) using a radiometric protein kinase assay
(33PanQinase® Activity Assay).
(§1) (1 picture or pasted object on this page, not shown here)

protein kinases = test: Radioactive filter-binding assays, panel of 140 kinases (Supplementary Table 2); assay type: biochemical
Protocol: Supplementary Table 2. In vitro inhibition (% remaining activity) of protein
free assays. Screening was performed by the International Centre for Kinase Profiling
(Dundee, UK) using radioactive ( P-ATP) filter-binding assays.
as §1

human mdmx (hdmx) = molecular target: T1, human mdmx (hdmx) (Homo sapiens, UniProt O15151); test: hdmx binding (CETSA in ARN8 extracts; ELISA with IP3 peptide); settings: CETSA at 100 μM
T1 construct: ARN8 soluble cell extracts were prepared for the cellular thermal shift assay (CETSA); endogenous in cells; host or cells: ARN8 human melanoma cells (soluble extract)
T1 sequence (O15151 whole entry): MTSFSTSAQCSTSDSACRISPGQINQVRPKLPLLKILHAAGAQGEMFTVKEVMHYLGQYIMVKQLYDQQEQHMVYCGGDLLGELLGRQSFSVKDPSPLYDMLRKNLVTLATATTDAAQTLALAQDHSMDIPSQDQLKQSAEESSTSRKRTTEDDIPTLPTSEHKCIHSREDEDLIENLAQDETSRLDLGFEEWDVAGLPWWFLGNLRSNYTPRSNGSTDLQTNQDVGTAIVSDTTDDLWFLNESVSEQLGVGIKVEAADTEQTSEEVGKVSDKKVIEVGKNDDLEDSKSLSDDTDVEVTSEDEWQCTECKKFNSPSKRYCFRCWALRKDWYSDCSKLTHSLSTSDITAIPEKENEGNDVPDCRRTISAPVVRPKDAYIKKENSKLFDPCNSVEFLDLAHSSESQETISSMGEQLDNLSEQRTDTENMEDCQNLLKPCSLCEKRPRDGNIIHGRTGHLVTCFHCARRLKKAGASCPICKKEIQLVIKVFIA
Protocol: Levels of gapdh were used to monitor protein loading. e ARN8 or HNDF cells were treated with the indicated compound concentrations for 72 h and subjected to MTT assays. […] Incorporation of ^35S in the p53 immunoprecipitate was determined by autoradiography. The experiment is shown in duplicate
corresponds to residues 17−26 of wild-type p53) was determined by ELISA (See
supplementary information9). The percentage hdm2/hdmx bound to IP3 relative to the vehicle
upon which cycloheximide (CHX) (10 µg mL-1) was added for the indicated periods of time. […]

p53 in ARN8 cells = test: p53 synthesis assay (35S-Met-Cys pulse labeling, p53 immunoprecipitation); assay type: cell-based, human; settings: 20 μM, within 6 h of treatment
Protocol: ARN8 cells were seeded at 2.5 × 10^6 cells per 10 cm dish. […] After 5.5 h, medium was substituted for Met- and Cys-deprived DMEM, supplemented with 5 μM nutlin-3, 0.5% FBS and 4 mM L-glutamine for 20 min in the presence of the corresponding compounds. ^35S-Met-Cys (50 μCi mL^−1) was added for 30 min. […] Samples were centrifuged at 16,000×g for 15 min at 4 °C. Volume of 30 µL of each supernatant was stored as input. The remaining supernatants were incubated with 5 µg anti-p53 DO-1 antibody and rotated overnight at 4 °C. Samples were transferred to Dynabeads Protein G (# D10004D, Life Technologies) and rotated for 30 min at RT. Samples were centrifuged briefly for 10 s and placed in front of a magnet. […] Pellets were resuspended in 3× LDS containing 100 mM DTT. Samples were separated by SDS-PAGE and the gels were incubated in enhancer solution (#6NE9741, PerkinElmer), dried and exposed to Carestream Kodak BioMax MR films at −80 °C.

[2] = system: p53-dependent transcription in ARN8 human melanoma cells; test: p53-dependent transcription reporter (CPRG assay) in ARN8 cells; assay type: cell-based; settings: cultured cells; authors' response in peer review file
Protocol: A 20,000 compound library was purchased from ChemBridge consisting of 10,000 from the DIVERSet and 10,000 from the CombiSet libraries. […] A total of 30,000 additional compounds from the ChemBridge DIVERSet that were previously screened in a T22 cell background[12] were re-screened in ARN8 cells at 5 µM. The ChemBridge codes for these compounds can be made available upon request. All chemical synthesis is detailed in Supplementary Information with NMR spectra and reaction schemes detailed in Supplementary Figs. 13–19.

[3] = In vivo pharmacokinetic parameters of (R)-HZ05; set-up: species or system C57B1/6N mice; settings: female, C57B1/6N, mouse, plasma, sc, 50 mg kg-1; following subcutaneous administration (Supplementary Fig. 7b); read-out: half-life (converted)
Protocol: Waters Acquity UPLC (Waters Corp.) was used for all LC/MS and LC/MS/MS experiments. For chromatographic separation a general gradient was used (5 % mobile phase B to 90 % over 2 min total run) on a C18 BEH 1.7 µm column 2 × 50 mm (Waters Corp.). Mobile phase A consisted of 5 % acetonitrile 0.1 % formic acid and mobile phase B 100 % acetonitrile 0.1 % formic acid. The flow rate was 0.5 mL min-1 and 3 µL of the sample was injected. A standard curve between 3−1000 nM was prepared for each compound. […]
In vivo Pharmacokinetic Parameter Determination
(R)-HZ05 was formulated for subcutaneous and oral administration at 5 mg mL-1 in 20 % hydroxypropyl-β-cyclodextrin in PBS and formulated at 5 mg mL-1 diluted in physiological NaCl. […]
Blood was collected […]
in EDTA tubes from three mice per time point and stored on ice with plasma separated within 30 min by centrifugation at 2000 g and stored at –80 ° C until analysis at 0.08, 0.25, 0.5, 1, 2, 3, 4, 6 and 24 h post administration. […] internal standard (9 nM warfarin) was added to each plasma sample and each sample was shaken at RT for 10 min followed by centrifugation at 2000 g for 30 min at 4 °C. […] of sample was injected into an Acquity UPLC coupled to a triple quadrupole mass spectrometer (Waters) operated in MRM mode with positive electrospray ionization. MRM transition 381.09 > […]
CV and 40 V for CE) as a qualifier ion. Transition for internal standard was 309.16 > 163.005 (22 V for CV and 14 V for CE). Ion source conditions were: capillary voltage, 2000 V; desolvation temperature, 500 °C; desol vation gas flow rate, 1000 L h-1. Separation was conducted using a BEH C18 column (2.1 × 50 mm, 1.7 µm, Waters) using a linear gradient: 0 – 0.5 min, 5 % B; […], 100 % B, 1.61–2.00 min, 5 % B. Mobile phase A was 5 % acetonitrile with 0.1 % formic acid and B […]
All animal experimentation was carried out by Sweden
Contract In vivo Design AB in compliance with 2010/63/EU directive and approved by Stockholms Norra Djurförsöksetiska Nämnd (laboratory animal eth ical committee Stockholm) with the approval number N61/15. Any single plasma concentration value deviated by >10 times from the other two values was excluded from the pharmacokinetic evaluation, but was included in the figure. […]

| SMILES | inhibition of cyclin-dependent kinases [1] | inhibition of protein kinases (protein kinases) | binding to human mdmx (hdmx) (human mdmx (hdmx)) | p53 synthesis (p53 in ARN8 cells) | concentration activating p53-dependent transcription [2] | half-life [3] |
| --- | --- | --- | --- | --- | --- | --- |
| O=C(NC1CCCc2c1cnn2-c1ccccc1F)c1ccccn1 (stereo not drawn) [HZ00] | did not detect inhibition | did not detect inhibition | not detected | increase p53 synthesis | – | – |
| O=C(NC1CCCc2c1cnn2-c1ccccc1F)c1onc2c1CCCC2 (stereo not drawn) [HZ05] | – | – | – | – | below 40 nM | 2.5 h |
